Measurements reported in patent US5126348A, “Bioavailability enhancers” (priority 1989, dated 1992).
Read-outs that look alike come from different tables or passages of the source. Blank lines part the entries; values can stand above or below the molecule they belong to.

Columns and labels:
[1] = parameters: species or system beagle dog; conditions: dog, in vivo
[2] = in vivo
Excerpt: Venous blood samples were taken at time intervals listed below. […] After administration to the human volunteer, blood samples were taken at the same time intervals as the previous test. Relative salicylic acid concentrations of the samples were compared using fluorescence units as determined by spectrofluorometer.

[3] = Theophylline blood levels as a function of time after oral administration, with and without nicotinic acid (Example 1)
Excerpt: FIG. 1 is a graph showing theophylline blood levels as a function of time after administration, comparing theophylline in combination with nicotinic acid with theophylline alone.

[4] = cited from earlier work
[5] = cited from earlier work; remark: listed apart in the source
[6] = cited from earlier work; remark: listed apart in the source

absorption induced by reserpine [1]: near-complete absorption
elimination kinetics, reserpine-treated vs. non-pretreated dogs [1]: similar
time of peak plasma concentrations of SA, reserpine-treated vs. non-pretreated dogs [1]: at the same time in both tests
% of maximum concentration ([1]; 10 min): 24%
plasma SA concentration ([1]; 10 min): 19.9 µg/mL
% of maximum concentration ([1]; 20 min): 47%
% of maximum concentration ([1]; 30 min): 70%
plasma SA concentration ([1]; 60 min): 72.8 µg/mL
% of maximum concentration ([1]; 120 min): 100%
plasma SA concentration (max) ([1]; 120 min): 81.4 µg/mL
Total area under the plasma level curve, increase over non-pretreated dogs ([1]; 480 min): 13.2%
total AUC, increase ([1]; iv): 14.5%
% of Dose of ASA Absorbed (using IV ASA as 100% absorption) ([1]; po): 87.5%
bioavailability of aspirin with nicotinic acid [2]: enhanced
SMILES: CC(=O)Oc1ccccc1C(=O)O [ASA, acetylsalicylic acid]
plasma concentration of SA, reserpine-treated vs. non-pretreated dogs [1]: considerably higher at each time interval

SMILES: Cn1c(=O)c2[nH]cnc2n(C)c1=O [Theophylline, theophylline]
concentration at 29 min ([3]; human, in vivo, po, 300 mg): < 500 ng/mL
concentration at 1.05 h ([3]; human, in vivo, po, 300 mg): 2200 ng/mL
concentration at 1.55 h ([3]; human, in vivo, po, 300 mg): 4400 ng/mL
concentration at 121 min ([3]; human, in vivo, po, 300 mg): 5300 ng/mL
concentration at 2.5 h ([3]; human, in vivo, po, 300 mg): 7000 ng/mL
concentration at 184 min ([3]; human, in vivo, po, 300 mg): 7200 ng/mL
Blood levels of theophylline ([3]; time after administration 0, oral, 300 mg theophylline, with or without 100 mg niacin): < 50 ng/mL

SMILES: NC(=O)c1cccnc1 [niacinamide]
vasodilation or flushing ([4]; niacinamide form): does not cause the vasodilation or flushing

SMILES: O=C(O)c1cccnc1 [nicotinic acid]
absorption with food ingestion [5]: not affected
toxicity ([4]; even at high dosages): relatively harmless
low density lipids and cholesterol in the blood ([4]; high doses (3-6 g/day)): lowers
peripheral vascular resistance ([4]; high doses (3-6 g/day)): decreases
stroke volume of the heart ([4]; high doses (3-6 g/day)): increases
tolerated dosage ([4]; human, in vivo): up to 6 grams per day
effects on blood pressure ([4]; in vivo): only minor effects
heart rate and cardiac output ([4]; in vivo): increases
peripheral blood flow ([4]; in vivo): increases
flushing effect with acetylsalicylic acid ([4]; with acetylsalicylic acid): reduced

SMILES: CC(C)NCC(O)COc1cccc2ccccc12 (stereo not shown) [propranolol]
bioavailability with hydralazine [6]: increased bioavailability
